The values that follow come from patent publication US20100028312A1, “Stably transformed bone marrow-derived cells and uses thereof” (Caritas St. Elizabeth Medical Center of Boston Inc, priority 2005, published 2010).

Assay [1] deals with BM cells. The conditions noted are these: 100 ng intraperitoneal for 3 consecutive days; 2 months after BMT; versus control BMT.
Description: To examine the effect of VEGF on BM cell mobilization, we injected the mice with 100 ng VEGF-C intaperitoneally for 3 days.
Freshly isolated BM cells or PB cells were subjected to FluoReporter lacZ Flow Cytometry Kit (Molecular Probes, OR) or stained with acetylated low-density lipoprotein (LDL) labeled with 1′-dioctadecyl1-1,3,3,3′-tetramethyl-indocarbocyanine; Di-I (Biomedical Technologies Inc, MA) as described previously [13]. Analysis was performed on a FACStar flow cytometer (Becton Dickinson) and Cell Quest Software counting 10,000 events per sample.
Accordingly, we treated recipient mice with VEGF protein and analyzed the kinetics of mobilization of BM cells by FACS analysis.
The means±S.E. from 9 independent experiments are presented. *, p<0.01, **, p<0.05 versus control BMT (FIG. 2A).
For assay [2], the system named is EPC. Put plainly: β-galactosidase activity in EPC transduced with type 2 AAV, with or without genistein. In kind it is cell-based, rats. As to the method: (§1) EPC Culture and Expansion. Peripheral blood (about 1 ml) was obtained from the hearts of rats and mononuclear cells were isolated by density gradient centrifugation and cultured for 5 days. EPC were expanded ex vivo as described above.
(§2) Transduction of EPC. EPC cultures were infected with type 2 AAV-lacZ (also referred to herein as AAV-lacZ(+)) (control) vectors or AAV-IGF-1 vectors, prepared as described above, using approximately 3000 particles/cell. Some cultures were treated for about 1 hour with genistein, a specific inhibitor of cellular protein tyrosine kinases, (2-40 μM, preferably about 20 μM). Control vectors used in the genistein experiments also included AAV vector without lacZ, designated AAVlacZ(−).
AAV-IGF-1 mRNA expression in EPCs was determined by RT-PCR assay using primers specific for human IGF-1 sequences. The primer sequences used in these studies are as shown:
To determine whether efficiency of rAAV transduction of cultured EPC can be enhanced by inhibiting protein tyrosine kinases in these cells, some EPC cultures were pretreated with genestein prior to infection with rAAV, as described above. Referring to FIG. 5, in cultures infected with AAVlacZ(−) control vector, β-gal activity was negligible. In cultures infected with AAVlacZ(+) without or with pretreatment with 20 μM genistein, β-gal activity was 3.35 vs. 12.09, respectively. […]

Assay [3] deals with EPC. The assay can be described thus: RT-PCR assay of AAV-IGF-1 mRNA expression in transduced EPC, with or without genistein. In kind it is cell-based, rats. As to the method: as §1, §2
One week after infection, the cells were analyzed for β-galactosidase activity. AAV-IGF-1 mRNA expression in EPCs was determined by RT-PCR assay using primers specific for human IGF-1 sequences. The primer sequences used in these studies are as shown: […]

As for VEGF, the “β-gal expression in both PB and BM of recipient mice” value in assay [1] was “significantly increased”.

For the molecule `O=c1c(-c2ccc(O)cc2)coc2cc(O)cc(O)c12` [genistein], in assay [2] (20 μM genistein versus no genistein, AAVlacZ(+)), the “increase of lacZ activity by genistein” value was “approximately four-fold”. The β-gal activity in assay [2] (14 days after transduction, AAVlacZ(+)-infected EPC pretreated with 20 μM genistein) is reported as 12.09. Further, the “AAV-mediated IGF-1 expression (mRNA, RT-PCR)” value in assay [3] (AAV-IGF-1 transduced EPC following treatment with genistein) was 206.1 units. In addition, the “increase of IGF-1 expression from AAV by genistein” value in assay [3] (genistein versus no genistein) is recorded as “about seven-fold”.
